Where only a bound is given, the exact number is not on record here.

One assay deals with Full length Human HDAC8 (Homo sapiens (Human), UniProt Q9BY41). As to the kind of experiment: Caliper endpoint assay for HDAC enzymatic activity (HDAC8). The format is biochemical. Conditions: in vitro enzymatic, 30 min pre-incubation, 1 μM FAM-RHKK(TFAc)-NH2 substrate.
The target in the next assay is Full length Human HDAC6 (Homo sapiens (Human), UniProt Q9UBN7). As to the kind of experiment: Caliper endpoint assay for HDAC enzymatic activity (HDAC6). Conditions: for IC50: in vitro enzymatic, 30 min pre-incubation, 1 μM FAM-RHKK(Ac)-NH2 substrate; for Selectivity (6 v 8) (fold): ratio of HDAC8 IC50/HDAC6 IC50. The format is biochemical.
Full length Human HDAC6, sequence (Q9UBN7 whole entry): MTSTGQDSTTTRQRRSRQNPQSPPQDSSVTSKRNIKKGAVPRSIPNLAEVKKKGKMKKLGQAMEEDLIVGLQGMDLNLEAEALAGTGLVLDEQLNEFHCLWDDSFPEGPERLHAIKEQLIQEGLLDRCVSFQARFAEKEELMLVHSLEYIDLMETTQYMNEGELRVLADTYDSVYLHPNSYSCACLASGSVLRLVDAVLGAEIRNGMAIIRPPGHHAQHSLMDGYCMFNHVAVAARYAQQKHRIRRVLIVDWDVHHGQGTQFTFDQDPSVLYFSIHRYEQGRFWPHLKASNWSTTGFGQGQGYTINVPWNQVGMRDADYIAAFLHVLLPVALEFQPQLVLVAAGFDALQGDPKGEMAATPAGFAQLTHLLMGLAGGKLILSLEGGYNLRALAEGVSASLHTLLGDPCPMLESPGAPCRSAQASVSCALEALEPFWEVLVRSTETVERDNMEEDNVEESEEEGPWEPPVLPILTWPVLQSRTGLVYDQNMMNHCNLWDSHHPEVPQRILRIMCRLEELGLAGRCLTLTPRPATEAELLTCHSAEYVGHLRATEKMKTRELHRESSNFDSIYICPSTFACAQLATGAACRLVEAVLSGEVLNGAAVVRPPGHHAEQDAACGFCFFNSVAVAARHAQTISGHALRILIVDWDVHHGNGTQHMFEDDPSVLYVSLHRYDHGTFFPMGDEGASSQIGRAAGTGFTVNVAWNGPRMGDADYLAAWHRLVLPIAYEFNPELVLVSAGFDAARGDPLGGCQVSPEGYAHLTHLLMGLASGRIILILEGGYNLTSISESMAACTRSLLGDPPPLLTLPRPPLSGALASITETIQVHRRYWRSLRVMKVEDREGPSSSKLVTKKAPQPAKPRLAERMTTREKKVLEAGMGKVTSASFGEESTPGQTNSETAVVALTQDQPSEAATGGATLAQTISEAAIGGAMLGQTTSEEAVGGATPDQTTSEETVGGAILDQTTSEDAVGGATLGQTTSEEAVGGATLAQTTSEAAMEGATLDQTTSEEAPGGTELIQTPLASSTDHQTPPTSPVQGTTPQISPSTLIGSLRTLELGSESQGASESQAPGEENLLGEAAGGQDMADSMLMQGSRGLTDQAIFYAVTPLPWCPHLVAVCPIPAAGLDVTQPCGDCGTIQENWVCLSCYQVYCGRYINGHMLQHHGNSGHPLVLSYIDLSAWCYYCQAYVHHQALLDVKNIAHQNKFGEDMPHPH

Full length Human HDAC8, sequence (Q9BY41 whole entry): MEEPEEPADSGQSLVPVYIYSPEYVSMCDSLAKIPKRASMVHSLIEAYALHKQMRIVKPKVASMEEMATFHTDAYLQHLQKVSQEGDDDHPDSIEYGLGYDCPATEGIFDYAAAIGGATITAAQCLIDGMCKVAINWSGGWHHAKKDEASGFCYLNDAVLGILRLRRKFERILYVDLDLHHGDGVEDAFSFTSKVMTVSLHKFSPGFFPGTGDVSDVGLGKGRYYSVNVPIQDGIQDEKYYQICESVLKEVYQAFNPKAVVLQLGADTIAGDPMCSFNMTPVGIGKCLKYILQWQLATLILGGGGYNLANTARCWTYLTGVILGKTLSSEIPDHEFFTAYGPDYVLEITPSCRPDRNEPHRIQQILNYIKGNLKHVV

As for `O=C(NO)c1cnc2c(c1)CCN(C1CC3(CCCNC3)C1)C2` (single isomer, unassigned) [Compound 342], on Full length Human HDAC8, the IC50 is 10000 to 100000 nM.

On to `O=C(NO)c1cc2c(cn1)CN(C1CC3(CCCCC3)C1)CC2` [DDD], for which the IC50 at Full length Human HDAC8 was in the range of 10000 to 100000 nM. On Full length Human HDAC6, the IC50 lay in the range of 1000 to 10000 nM and the “Selectivity (6 v 8) (fold)” value was “III (III: >10-100)”.

As for `O=C(NO)c1cnc2c(c1)CCN(C1CC3(CCOCC3)C1)C2` [Compound 179, N-hydroxy-7-(7-oxaspiro[3.5]nonan-2-yl)-5,6,7,8-tetrahydro-1,7-naphthyridine-3-carboxamide], at Full length Human HDAC8, the IC50 lay within 1000 to 10000 nM. For the same compound, on Full length Human HDAC6, the IC50 is 100 to 1000 nM and the “Selectivity (6 v 8) (fold)” value is on record as “III (III: >10-100)”.

Compound `CN1CCC[C@]2(C1)C[C@@H](N1CCc3cc(C(=O)NO)cnc3C1)C2` (single isomer, unassigned) [Compound 343] displayed an IC50 at Full length Human HDAC8 of 1000 to 10000 nM. Further, on Full length Human HDAC6, the IC50 was 100 to 1000 nM and the “Selectivity (6 v 8) (fold)” value is “III (III: >10-100)”.

For `O=C(NO)c1ncc2c(n1)CCN(C1CC3(CCCCC3)C1)C2` [FFF, N-hydroxy-6-(spiro[3.5]nonan-2-yl)-5,6,7,8-tetrahydropyrido[4,3-d]pyrimidine-2-carboxamide], the IC50 on Full length Human HDAC8 was > 100000 nM. For the same compound, at Full length Human HDAC6, the IC50 is > 100000 nM and the “Selectivity (6 v 8) (fold)” value was “II (II: >1-10)”.

For `O=C(NO)c1cnc2c(c1)CCN(C1CC3(CCNCC3)C1)C2` [Compound 197, N-hydroxy-7-(7-azaspiro[3.5]nonan-2-yl)-5,6,7,8-tetrahydro-1,7-naphthyridine-3-carboxamide], the values for the IC50 at Full length Human HDAC8 and at Full length Human HDAC6 were 10000 to 100000 nM and 100 to 1000 nM, respectively. In addition, the “Selectivity (6 v 8) (fold)” value at Full length Human HDAC6 is listed as “III (III: >10-100)”.

As to `CN1CCC2(CCC(N3CCc4cc(C(=O)NO)cnc4C3)C2)CC1` (centres unmarked) [Compound 417], the IC50 at Full length Human HDAC8 was in the range of 1000 to 10000 nM; against Full length Human HDAC6, 100 to 1000 nM. Also, at Full length Human HDAC6, the “Selectivity (6 v 8) (fold)” value is “III (III: >10-100)”.

On to `O=C(NO)c1cnc2c(c1)CCN(C1CCC3(CCC3)CC1)C2` [Compound 192, N-hydroxy-7-(spiro[3.5]nonan-7-yl)-5,6,7,8-tetrahydro-1,7-naphthyridine-3-carboxamide], for which the IC50 at Full length Human HDAC8 lay in the range of 1000 to 10000 nM. On Full length Human HDAC6, the IC50 is 1 to 100 nM and the “Selectivity (6 v 8) (fold)” value is recorded as “IV (IV: >100-1000)”.

In the case of `O=C(NO)c1cnc2c(c1)CCN([C@@H]1CCCC3(CCC3)C1)C2` (single isomer, unassigned) [Compound 194], the half-inhibitory concentration (IC50) against Full length Human HDAC8 was in the range of 10000 to 100000 nM. For the same compound, on Full length Human HDAC6, the IC50 was 100 to 1000 nM and the “Selectivity (6 v 8) (fold)” value is given as “III (III: >10-100)”.

In the case of `O=C(NO)c1cnc2c(c1)CCN([C@H]1CCCC3(CCC3)C1)C2` (single isomer, unassigned) [Compound 195], the IC50 fell in the range of 1000 to 10000 nM at Full length Human HDAC8 and 1 to 100 nM against Full length Human HDAC6. On Full length Human HDAC6, the “Selectivity (6 v 8) (fold)” value is “IV (IV: >100-1000)”.

`CN1CCC2(CC1)CC(N1CCc3cc(C(=O)NO)cnc3C1)C2` [Compound 198, N-hydroxy-7-(7-methyl-7-azaspiro[3.5]nonan-2-yl)-5,6,7,8-tetrahydro-1,7-naphthyridine-3-carboxamide] gave an IC50 at Full length Human HDAC8 of 1000 to 10000 nM. In addition, at Full length Human HDAC6, the IC50 was 100 to 1000 nM and the “Selectivity (6 v 8) (fold)” value is “III (III: >10-100)”.

`O=C(NO)c1cnc2c(c1)CCN([C@H]1C[C@]3(CCOC3)C1)C2` [Compound 189, N-hydroxy-7-((2s,4s)-6-oxaspiro[3.4]octan-2-yl)-5,6,7,8-tetrahydro-1,7-naphthyridine-3-carboxamide]: at Full length Human HDAC8, the half-maximal inhibitory concentration (IC50) was in the range of 10000 to 100000 nM. For the same compound, at Full length Human HDAC6, the IC50 was 100 to 1000 nM and the “Selectivity (6 v 8) (fold)” value is recorded as “IV (IV: >100-1000)”.

With `O=C(NO)c1ccc2c(n1)CCN(C1CC3(CCCCC3)C1)C2` [EEE], at Full length Human HDAC8, the IC50 was > 100000 nM. Moreover, at Full length Human HDAC6, the IC50 fell in the range of 100 to 1000 nM and the “Selectivity (6 v 8) (fold)” value is recorded as “V (V: >1000)”.

In the case of `O=C(NO)c1cnc2c(c1)CCN(C1CC3(CCCNC3)C1)C2` (single isomer, unassigned) [Compound 341], the IC50 at Full length Human HDAC8 lay in the range of 10000 to 100000 nM.

`O=C(NO)c1cnc2c(c1)CCN([C@H]1CCC3(CCC3)C1)C2` (single isomer, unassigned) [Compound 383]: on Full length Human HDAC8, the IC50 lay in the range of 10000 to 100000 nM. For the same compound, on Full length Human HDAC6, the IC50 lay within 1 to 100 nM and the “Selectivity (6 v 8) (fold)” value was “IV (IV: >100-1000)”.

In turn, `O=C(NO)c1cnc2c(c1)CCN(C1CC3(CCCCC3)C1)C2` [Compound 16, N-hydroxy-7-(spiro[3.5]nonan-2-yl)-5,6,7,8-tetrahydro-1,7-naphthyridine-3-carboxamide] had an IC50 at Full length Human HDAC8 of 10000 to 100000 nM. Moreover, at Full length Human HDAC6, the IC50 is 1 to 100 nM and the “Selectivity (6 v 8) (fold)” value was “IV (IV: >100-1000)”.

Consider `O=C(NO)c1cnc2c(c1)CCN(C1CC3(CNC3)C1)C2` [Compound 289], for which the IC50 against Full length Human HDAC8 was 10000 to 100000 nM; against Full length Human HDAC6, 100 to 1000 nM. The “Selectivity (6 v 8) (fold)” value on Full length Human HDAC6 is on record as “III (III: >10-100)”.

On to `O=C(NO)c1cnc2c(c1)CCN(CC13CC4CC(CC(C4)O1)C3)C2` [Compound 14], for which the concentration for half-maximal inhibition (IC50) against Full length Human HDAC8 was 10000 to 100000 nM; against Full length Human HDAC6, 1 to 100 nM. Moreover, on Full length Human HDAC6, the “Selectivity (6 v 8) (fold)” value was “IV (IV: >100-1000)”.

Take `CN1CCC[C@]2(C1)C[C@H](N1CCc3cc(C(=O)NO)cnc3C1)C2` (single isomer, unassigned) [Compound 344]: the values for the IC50 against Full length Human HDAC8 and on Full length Human HDAC6 were 1000 to 10000 nM and 100 to 1000 nM, respectively. For the same compound, on Full length Human HDAC6, the “Selectivity (6 v 8) (fold)” value is “III (III: >10-100)”.

Turning to `O=C(NO)c1cnc2c(c1)CCN(C1CC3(CCCC3)C1)C2` [Compound 183, N-hydroxy-7-(spiro[3.4]octan-2-yl)-5,6,7,8-tetrahydro-1,7-naphthyridine-3-carboxamide], the IC50 against Full length Human HDAC8 was in the range of 1000 to 10000 nM. For the same compound, on Full length Human HDAC6, the IC50 is 1 to 100 nM and the “Selectivity (6 v 8) (fold)” value was “IV (IV: >100-1000)”.

For the compound `CC(=O)N1CCC2(CC1)CC(N1CCc3cc(C(=O)NO)cnc3C1)C2` [Compound 199, 7-(7-acetyl-7-azaspiro[3.5]nonan-2-yl)-N-hydroxy-5,6,7,8-tetrahydro-1,7-naphthyridine-3-carboxamide], on Full length Human HDAC8, the IC50 lay within 10000 to 100000 nM. In addition, on Full length Human HDAC6, the IC50 was in the range of 100 to 1000 nM and the “Selectivity (6 v 8) (fold)” value was “III (III: >10-100)”.

On to `O=C(NO)c1cnc2c(c1)CCN([C@H]1C[C@@]3(CCOC3)C1)C2` [Compound 188, N-hydroxy-7-((2r,4r)-6-oxaspiro[3.4]octan-2-yl)-5,6,7,8-tetrahydro-1,7-naphthyridine-3-carboxamide], for which the IC50 against Full length Human HDAC8 is 10000 to 100000 nM; on Full length Human HDAC6, 100 to 1000 nM. The “Selectivity (6 v 8) (fold)” value on Full length Human HDAC6 was “IV (IV: >100-1000)”.

The record behind these values is patent US20250179065A1, “HDAC6 INHIBITORS AND USES THEREOF” (Eikonizo Therapeutics, Inc., priority 2022, published 2025).
